Measurements: ChEMBL document CHEMBL3390848, “Affinity selection and sequence-activity relationships of HIV-1 membrane fusion inhibitors directed at the drug-resistant variants” (Medchemcomm, 2010)
Residues, ends and D or L forms follow the SMILES beside them.

Legend:
[1] = tested on: Human immunodeficiency virus 1; assay: Antiviral activity against HIV1 NL4-3 harboring gp41 D36G mutant infected in human HeLa cells expressing CD4-LTR-beta-gal assessed as inhibition of viral replication after 48 hrs by MAGI assay; assay type: functional, organism-based
[2] = tested on: Human immunodeficiency virus 1; assay: Binding affinity to HIV1 His-tagged N-terminal heptad repeat of envelope glycoprotein gp41 assessed as recovery of N54-drug complex after 2 hrs by LC-MS analysis; parameters: concentration or dose not given beside the values
[3] = tested on: Human immunodeficiency virus 1; assay: Thermal stability of HIV1 envelope glycoprotein gp41 His-tagged N-terminal heptad repeat N54-drug complex assessed as thermal unfolding transition state by measuring molar ellipticity at 4 to 90 degC by circular dichroic spectra analysis

| Structure (SMILES) | EC50 [1] [nM] | Activity [2] [%] | Tm [3] [°C] |
| --- | --- | --- | --- |
| CC[C@H](C)[C@H](NC(=O)[C@H](CC(C)C)NC(=O)[C@H](CCC(=O)O)NC(=O)[C@H](CCC(=O)O)NC(=O)[C@@H](NC(=O)[C@H](CC(C)C)NC(=O)[C@H](CO)NC(=O)[C@@H](NC(=O)[C@H](Cc1ccc(O)cc1)NC(C)=O)[C@@H](C)O)[C@@H](C)CC)C(=O)N[C@@H](CCCCN)C(=O)N[C@@H](CCCCN)C(=O)N[C@@H](CO)C(=O)N[C@@H](CCC(=O)O)C(=O)N[C@@H](CCC(=O)O)C(=O)N[C@@H](Cc1ccc(O)cc1)C(=O)N[C@@H](CCC(N)=O)C(=O)N[C@@H](CCCCN)C(=O)N[C@@H](CCCCN)C(=O)N[C@@H](CC(N)=O)C(=O)N[C@@H](CCC(=O)O)C(=O)N[C@@H](CCC(=O)O)C(=O)N[C@@H](CCC(=O)O)C(=O)N[C@@H](CC(C)C)C(=O)N[C@@H](CCCCN)C(=O)N[C@@H](CCCCN)C(=O)N[C@@H](CC(C)C)C(=O)N[C@@H](CCC(=O)O)C(=O)N[C@@H](CCC(=O)O)C(=O)N[C@@H](Cc1c[nH]c2ccccc12)C(=O)N[C@@H](C)C(=O)N[C@@H](CCCCN)C(=O)N[C@@H](CCCCN)C(=O)N[C@@H](Cc1c[nH]c2ccccc12)C(=O)N[C@@H](CC(N)=O)C(=O)N[C@@H](Cc1c[nH]c2ccccc12)C(=O)N[C@@H](Cc1ccccc1)C(N)=O (Ac-YTSLIEELIKKSEEYQKKNEEELKKLEEWAKKWNWF-NH2) | 2.3 | 4.9 | 67.7 |
| CC[C@H](C)[C@H](NC(=O)[C@H](CC(C)C)NC(=O)[C@H](CCC(=O)O)NC(=O)[C@H](CCC(=O)O)NC(=O)[C@@H](NC(=O)[C@H](CC(C)C)NC(=O)[C@H](CO)NC(=O)[C@@H](NC(=O)[C@H](Cc1ccc(O)cc1)NC(C)=O)[C@@H](C)O)[C@@H](C)CC)C(=O)N[C@@H](CCCCN)C(=O)N[C@@H](CCCCN)C(=O)N[C@@H](CO)C(=O)N[C@@H](CCC(=O)O)C(=O)N[C@@H](CCC(=O)O)C(=O)N[C@@H](CC(C)C)C(=O)N[C@@H](CCC(N)=O)C(=O)N[C@@H](CCCCN)C(=O)N[C@@H](CCCCN)C(=O)N[C@@H](CC(N)=O)C(=O)N[C@@H](CCC(=O)O)C(=O)N[C@@H](CCC(=O)O)C(=O)N[C@@H](CCC(=O)O)C(=O)N[C@@H](CC(C)C)C(=O)N[C@@H](CCCCN)C(=O)N[C@@H](CCCCN)C(=O)N[C@@H](CC(C)C)C(=O)N[C@@H](CCC(=O)O)C(=O)N[C@@H](CCC(=O)O)C(=O)N[C@@H](Cc1c[nH]c2ccccc12)C(=O)N[C@@H](C)C(=O)N[C@@H](CCCCN)C(=O)N[C@@H](CCCCN)C(=O)N[C@@H](Cc1c[nH]c2ccccc12)C(=O)N[C@@H](CC(N)=O)C(=O)N[C@@H](Cc1c[nH]c2ccccc12)C(=O)N[C@@H](Cc1ccccc1)C(N)=O (Ac-YTSLIEELIKKSEELQKKNEEELKKLEEWAKKWNWF-NH2) | 0.5 | 10.4 | 77.4 |
| CC[C@H](C)[C@H](NC(=O)[C@H](CC(C)C)NC(=O)[C@H](CCC(=O)O)NC(=O)[C@H](CCC(=O)O)NC(=O)[C@@H](NC(=O)[C@H](CC(C)C)NC(=O)[C@H](CO)NC(=O)[C@@H](NC(=O)[C@H](Cc1ccc(O)cc1)NC(C)=O)[C@@H](C)O)[C@@H](C)CC)C(=O)N[C@@H](CCCCN)C(=O)N[C@@H](CCCCN)C(=O)N[C@@H](CO)C(=O)N[C@@H](CCC(=O)O)C(=O)N[C@@H](CCC(=O)O)C(=O)N[C@H](C(=O)N[C@@H](CCC(N)=O)C(=O)N[C@@H](CCCCN)C(=O)N[C@@H](CCCCN)C(=O)N[C@@H](CC(N)=O)C(=O)N[C@@H](CCC(=O)O)C(=O)N[C@@H](CCC(=O)O)C(=O)N[C@@H](CCC(=O)O)C(=O)N[C@@H](CC(C)C)C(=O)N[C@@H](CCCCN)C(=O)N[C@@H](CCCCN)C(=O)N[C@@H](CC(C)C)C(=O)N[C@@H](CCC(=O)O)C(=O)N[C@@H](CCC(=O)O)C(=O)N[C@@H](Cc1c[nH]c2ccccc12)C(=O)N[C@@H](C)C(=O)N[C@@H](CCCCN)C(=O)N[C@@H](CCCCN)C(=O)N[C@@H](Cc1c[nH]c2ccccc12)C(=O)N[C@@H](CC(N)=O)C(=O)N[C@@H](Cc1c[nH]c2ccccc12)C(=O)N[C@@H](Cc1ccccc1)C(N)=O)C(C)C (Ac-YTSLIEELIKKSEEVQKKNEEELKKLEEWAKKWNWF-NH2) | 2.9 | 6.1 | 70.5 |
